Experimental findings from PubChem BioAssay AID330 (DTP/NCI, 2004) are described below.

“And” between values parts separate entries of the source, which are not always exact repeats. Identical values can stand only once. Toxic doses and inconclusive results are not listed.

The subject of the experiment is P388 leukemia ip, CD2F1 mice, survival T/C. As to the kind of experiment: NCI In Vivo Anticancer Drug Screen. Data for tumor model P388 Leukemia (intraperitoneal) in CD2F1 (CDF1) mice. As to conditions: endpoint: median survival time, higher = longer survival. In outline:
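Mice carrying the transplanted tumor received test compound or vehicle. Survival was recorded in each group, and the value is the treated-group measurement divided by that of the vehicle-treated control group.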

[1] abbreviates: dose: 50.0 mg/kg/injection, schedule: Q01DX009 (ip), vehicle: saline with Tween-80.
The mark [2] stands for this setting: dose: 100.0 mg/kg/injection, schedule: Q01DX009 (ip), vehicle: saline with Tween-80.
Where [3] appears, read: dose: 200.0 mg/kg/injection, schedule: Q01DX009 (ip), vehicle: saline with Tween-80.
[4] abbreviates: dose: 60.0 mg/kg/injection, schedule: Q01DX005 (ip), vehicle: saline.
Setting [5] is: dose: 120.0 mg/kg/injection, schedule: Q01DX005 (ip), vehicle: saline.
The mark [6] stands for this setting: dose: 240.0 mg/kg/injection, schedule: Q01DX005 (ip), vehicle: saline.
[7] abbreviates: dose: 50.0 mg/kg/injection, schedule: Q01DX005 (ip), vehicle: Klucel (hydroxypropylcellulose) (HPC).
The mark [8] stands for this setting: dose: 100.0 mg/kg/injection, schedule: Q01DX005 (ip), vehicle: Klucel (hydroxypropylcellulose) (HPC).
The mark [9] stands for this setting: dose: 200.0 mg/kg/injection, schedule: Q01DX005 (ip), vehicle: Klucel (hydroxypropylcellulose) (HPC).
The mark [10] stands for this setting: dose: 25.0 mg/kg/injection, schedule: Q01DX009 (ip), vehicle: saline with Tween-80.

For `COCCCN=C(N)N`, the T/C is, setting by setting: (dose: 50.0 mg/kg/injection, schedule: Q04DX003 (ip), vehicle: saline) 109 % of control; (dose: 100.0 mg/kg/injection, schedule: Q04DX003 (ip), vehicle: saline) 100 % of control; (dose: 200.0 mg/kg/injection, schedule: Q04DX003 (ip), vehicle: saline) 95 % of control.

Consider `COc1ccc(-c2sc(-c3ccccc3)nc2O)cc1`, for which the T/C is 89 % of control under setting [1], 89 % of control under setting [2] and 92 % of control under setting [3].

In the case of `CC1C(=O)CCC2(C)CCC(C)(C)CC12` (centres undefined), the T/C reads like this: under setting [2], 91 % of control; under setting [3], 104 % of control; (dose: 400.0 mg/kg/injection, schedule: Q01DX009 (ip), vehicle: saline with Tween-80) 95 % of control.

Turning to `O=C(Nc1ccc(Cl)cc1)Nc1nnc2nc(C(C(=O)c3ccc(F)cc3)c3nc4nnc(NC(=O)Nc5ccc(Cl)cc5)n4[nH]c3=O)c(=O)[nH]n12`, the T/C was 103 % of control (dose: 60.0 mg/kg/injection, schedule: Q01DX005 (ip), vehicle: saline with Tween-80); 93 % of control (dose: 120.0 mg/kg/injection, schedule: Q01DX005 (ip), vehicle: saline with Tween-80); 86 % of control (dose: 240.0 mg/kg/injection, schedule: Q01DX005 (ip), vehicle: saline with Tween-80).

For `CC1=NNB(O)c2ccsc21`, the T/C was 98 % of control under setting [1], 99 % of control under setting [2] and 108 % of control under setting [3].

Take `Cc1ccc(Nc2n[nH]c(=S)s2)cc1C`: the T/C by setting is: (dose: 100.0 mg/kg/injection, schedule: Q04DX003 (ip), vehicle: saline with Tween-80) 90 % of control; (dose: 200.0 mg/kg/injection, schedule: Q04DX003 (ip), vehicle: saline with Tween-80) 90 % of control; (dose: 400.0 mg/kg/injection, schedule: Q04DX003 (ip), vehicle: saline with Tween-80) 95 % of control.

For `CN1CCN(C)C1=Nc1ccccc1/C=C/C=C1C(=O)N(C)C(=O)N(C)C1=O`, the T/C is, setting by setting: (dose: 25.0 mg/kg/injection, schedule: Q04DX002 (ip), vehicle: saline with Tween-80) 114 % of control; (dose: 50.0 mg/kg/injection, schedule: Q04DX002 (ip), vehicle: saline with Tween-80) 106 % of control; (dose: 100.0 mg/kg/injection, schedule: Q04DX002 (ip), vehicle: saline with Tween-80) 123 % of control.

`CCc1cc(-c2cc(CC)[nH]n2)n[nH]1`: the T/C by setting is: under setting [4], 100 % of control; under setting [5], 97 % of control; under setting [6], 95 % of control.

For `COc1ccc(CCNC(=O)CC2CCN(Cc3ccccc3)CC2)cc1OC`, the T/C runs as follows: under setting [7], 100 % of control; under setting [8], 100 % of control; under setting [9], 95 % of control.

In the case of `O=C(C(=O)C(Br)Br)C(Br)Br`, the T/C is 99 % of control (dose: 1.56 mg/kg/injection, schedule: Q01DX009 (ip), vehicle: DMSO); 103 % of control (dose: 3.12 mg/kg/injection, schedule: Q01DX009 (ip), vehicle: DMSO); 99 % of control (dose: 6.25 mg/kg/injection, schedule: Q01DX009 (ip), vehicle: DMSO).

Turning to `CCOc1cc(C=Nc2cc(Cl)c(O)c(Cl)c2)ccc1N(CCCl)CCCl`, the T/C was 122 % of control (dose: 3.13 mg/kg/injection, schedule: Q04DX003 (ip), vehicle: saline with Tween-80); 218 % of control (dose: 12.5 mg/kg/injection, schedule: Q01DX009 (ip), vehicle: saline with Tween-80); 168 % of control (dose: 12.5 mg/kg/injection, schedule: Q04DX003 (ip), vehicle: saline with Tween-80); 171 % of control (dose: 16.5 mg/kg/injection, schedule: Q04DX003 (ip), vehicle: saline with Tween-80); 150 % of control under setting [10]; 185 % of control and 200 % of control (dose: 25.0 mg/kg/injection, schedule: Q04DX003 (ip), vehicle: saline with Tween-80). Moreover, the T/C reads like this: (dose: 37.5 mg/kg/injection, schedule: Q04DX003 (ip), vehicle: saline with Tween-80) 204 % of control; (dose: 50.0 mg/kg/injection, schedule: Q04DX003 (ip), vehicle: saline with Tween-80) 90 % of control.

Turning to `NCCN.NCCN.[Cl-].[O]=[Re]=[O]`, the T/C runs as follows: under setting [4], 100 % of control; under setting [5], 102 % of control; under setting [6], 100 % of control.

On to `CC1(C)CC(N2CCOCC2)=CC(=S)N1`, for which the T/C was 100 % of control under setting [7], 103 % of control under setting [8] and 98 % of control under setting [9].

In the case of `O=C(Nc1ccccc1)OCc1ccc(OCc2ccccc2)cc1`, the T/C by setting is: under setting [10], 107 % of control and 94 % of control; under setting [1], 110 % of control and 95 % of control; under setting [2], 104 % of control and 89 % of control; under setting [3], 95 % of control.

For `N#Cc1ccccc1N=Nc1nc(N)c(C(N)=O)[nH]1`, the T/C (dose: 100.0 mg/kg/injection, schedule: Q04DX003 (ip), vehicle: Klucel (hydroxypropylcellulose) (HPC)) was 100 % of control; the T/C (dose: 200.0 mg/kg/injection, schedule: Q04DX003 (ip), vehicle: Klucel (hydroxypropylcellulose) (HPC)) was 103 % of control; the T/C (dose: 400.0 mg/kg/injection, schedule: Q04DX003 (ip), vehicle: Klucel (hydroxypropylcellulose) (HPC)) was 100 % of control.

With `CN1ON(c2ccc(Cl)c(Cl)c2)OC1=O`, the T/C by setting is: (dose: 12.5 mg/kg/injection, schedule: Q01DX009 (ip), vehicle: saline) 103 % of control; (dose: 25.0 mg/kg/injection, schedule: Q01DX009 (ip), vehicle: saline) 105 % of control; (dose: 50.0 mg/kg/injection, schedule: Q01DX009 (ip), vehicle: saline) 104 % of control and 109 % of control.

For `O=CNc1cccnc1C1OCCO1`, the T/C under setting [7] is 98 % of control, the T/C under setting [8] was 102 % of control and the T/C under setting [9] is 102 % of control.

On to `NCCc1ccncc1`, for which the T/C was 98 % of control (dose: 60.0 mg/kg/injection, schedule: Q01DX005 (ip), vehicle: suspension in saline) and 94 % of control (dose: 120.0 mg/kg/injection, schedule: Q01DX005 (ip), vehicle: suspension in saline).

As for `C[n+]1[se]c2ccccc2c1Cl`, the T/C (dose: 3.12 mg/kg/injection, schedule: Q01DX009 (ip), vehicle: Klucel (hydroxypropylcellulose) (HPC)) is 105 % of control; the T/C (dose: 6.25 mg/kg/injection, schedule: Q01DX009 (ip), vehicle: Klucel (hydroxypropylcellulose) (HPC)) is 99 % of control; the T/C (dose: 12.5 mg/kg/injection, schedule: Q01DX009 (ip), vehicle: Klucel (hydroxypropylcellulose) (HPC)) is 99 % of control and 89 % of control.

As for `C=COC(=O)C(Cc1ccc(OC)cc1)NC(=O)OCc1ccccc1` (centres undefined), the T/C was 103 % of control (dose: 100.0 mg/kg/injection, schedule: Q04DX002 (ip), vehicle: Klucel (hydroxypropylcellulose) (HPC)); 91 % of control (dose: 200.0 mg/kg/injection, schedule: Q04DX002 (ip), vehicle: Klucel (hydroxypropylcellulose) (HPC)); 94 % of control (dose: 400.0 mg/kg/injection, schedule: Q04DX002 (ip), vehicle: Klucel (hydroxypropylcellulose) (HPC)).

Regarding `CCc1nc(N)nc(N)c1-c1ccc(N(C)C)cc1`, the T/C is 97 % of control (dose: 6.25 mg/kg/injection, schedule: Q01DX005 (ip), vehicle: Klucel (hydroxypropylcellulose) (HPC)); 98 % of control (dose: 12.5 mg/kg/injection, schedule: Q01DX005 (ip), vehicle: Klucel (hydroxypropylcellulose) (HPC)); 96 % of control (dose: 25.0 mg/kg/injection, schedule: Q01DX005 (ip), vehicle: Klucel (hydroxypropylcellulose) (HPC)); 95 % of control under setting [7].
